biological target: T1, Angiotensin-converting enzyme (Rattus norvegicus, UniProt P47820); assay: In vitro inhibitory activity against rat serum angiotensin I converting enzyme using hippuryl-glycyl-glycine as substrate; format: cell-free
T1 sequence (P47820 whole entry): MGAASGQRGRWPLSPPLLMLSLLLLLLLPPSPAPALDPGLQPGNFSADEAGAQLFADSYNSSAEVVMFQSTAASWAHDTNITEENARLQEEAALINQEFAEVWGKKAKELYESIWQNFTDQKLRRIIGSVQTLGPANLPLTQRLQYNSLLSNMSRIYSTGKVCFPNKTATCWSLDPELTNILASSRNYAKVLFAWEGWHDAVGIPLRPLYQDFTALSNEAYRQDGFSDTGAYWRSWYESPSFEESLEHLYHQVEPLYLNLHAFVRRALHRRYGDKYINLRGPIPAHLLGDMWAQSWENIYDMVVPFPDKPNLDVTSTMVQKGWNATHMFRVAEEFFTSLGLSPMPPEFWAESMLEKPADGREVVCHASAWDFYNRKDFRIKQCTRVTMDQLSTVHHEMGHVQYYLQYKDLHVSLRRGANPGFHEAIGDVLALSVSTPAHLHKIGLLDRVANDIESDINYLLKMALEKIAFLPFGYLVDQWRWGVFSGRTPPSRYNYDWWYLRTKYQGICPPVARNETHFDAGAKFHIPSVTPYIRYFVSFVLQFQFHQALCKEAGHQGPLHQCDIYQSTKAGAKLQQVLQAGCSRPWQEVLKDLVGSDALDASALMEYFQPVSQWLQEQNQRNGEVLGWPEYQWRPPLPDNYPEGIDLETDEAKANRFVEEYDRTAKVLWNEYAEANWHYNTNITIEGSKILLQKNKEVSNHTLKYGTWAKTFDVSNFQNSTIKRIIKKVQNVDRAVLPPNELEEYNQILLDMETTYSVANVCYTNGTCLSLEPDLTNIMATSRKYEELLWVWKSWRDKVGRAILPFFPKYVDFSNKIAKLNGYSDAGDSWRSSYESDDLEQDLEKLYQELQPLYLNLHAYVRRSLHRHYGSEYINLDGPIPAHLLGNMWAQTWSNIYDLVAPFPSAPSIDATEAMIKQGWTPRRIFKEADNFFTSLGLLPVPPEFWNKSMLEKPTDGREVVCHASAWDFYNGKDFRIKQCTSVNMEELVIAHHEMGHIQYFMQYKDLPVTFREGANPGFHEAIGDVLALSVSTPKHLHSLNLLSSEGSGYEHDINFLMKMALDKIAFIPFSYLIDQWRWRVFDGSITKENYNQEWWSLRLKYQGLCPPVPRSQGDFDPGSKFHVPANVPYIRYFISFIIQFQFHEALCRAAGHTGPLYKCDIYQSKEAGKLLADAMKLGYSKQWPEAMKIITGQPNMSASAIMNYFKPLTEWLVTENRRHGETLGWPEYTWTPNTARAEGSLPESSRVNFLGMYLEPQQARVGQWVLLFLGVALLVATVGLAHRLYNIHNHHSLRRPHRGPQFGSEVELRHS

Row | IC50 [nM] | Compound
1 | > 150000 | CN(CC(=O)NOCc1ccccc1)C(=O)C1CCCCC1C(=O)O (stereo in doubt; 9e)
2 | > 150000 | CN(CC(=O)NOCc1ccccc1)C(=O)C1CCCCC1C(=O)O (cis isomer)
3 | > 150000 | O=C(O)C1CCCCC1C(=O)NCCS (trans isomer)
4 | 1500 | O=C(CNC(=O)C1CCCCC1C(=O)O)NO (trans isomer)
5 | 3000 | O=C(CNC(=O)C1CCCCC1C(=O)O)NO (cis isomer)
6 | > 150000 | O=C(O)CNC(=O)C1CCCCC1C(=O)O (stereo not given)
7 | 1400 | O=C(O)C1CCCCC1C(=O)CCS (stereo not given)
8 | 97000 | CCN(CC(=O)O)C(=O)C1CCCCC1C(=O)O (stereo in doubt; 7e)
9 | > 150000 | CCN(CC(=O)NOCc1ccccc1)C(=O)C1CCCCC1C(=O)O (trans isomer)
10 | > 150000 | CN(CC(=O)NOCc1ccccc1)C(=O)C1CCCC1C(=O)O (stereo not given)
11 | 600 | CC(CC(=O)NO)C(=O)N1CCC[C@H]1C(=O)O (stereo not given in full)
12 | 11000 | O=C(O)C1CCCC1C(=O)NCCS (stereo not given)
13 | 57 | CCN(CC(=O)NO)C(=O)C1CCCCC1C(=O)O (cis isomer)
14 | 2900 | CCN(CC(=O)NO)C(=O)C1CCCCC1C(=O)O (stereo in doubt; 21d)
15 | 12 | CN(CC(=O)NO)C(=O)C1CCCCC1C(=O)O (cis isomer)
16 | 14 | CCN(CC(=O)NO)C(=O)C1CCCCC1C(=O)O (trans isomer)
17 | 1700 | O=C(O)C1CCCCC1C(=O)CCS (trans isomer)
18 | > 150000 | CN(CC(=O)O)C(=O)C1CCCCC1C(=O)O (cis isomer)
19 | 28 | CCN(CC(=O)NO)C(=O)C1CCCCC1C(=O)O (stereo in doubt; 21c)
20 | > 150000 | CCN(CC(=O)NOCc1ccccc1)C(=O)C1CCCCC1C(=O)O (cis isomer)
